Experiments:
[1] = system: spindle assembly checkpoint; test: SAC-Formation - Nocodazole-Induced Assay; format: cell-based; details: Homo sapiens; HeLa cells, nocodazole 0.1 μg/ml, 24 h, phosphorylated histone H3 on serine 10
Procedure, shortened: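 HeLa cells were given nocodazole at 0.1 μg/ml final together with compounds (0.005–20 μM, 0.5% DMSO) for 24 h at 37° C. Mitotic cells were counted by phospho-histone H3 Ser10 immunostaining, with cell number from HOECHST 33342, by high-content imaging. The loss of mitotic cells was fitted with a four-parameter Hill equation.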

human Bub1 = human Bub1 (Homo sapiens (Human), UniProt O43683); test: Bub1 kinase assay (TR-FRET); format: biochemical; details: 10 μM ATP; read-out: Bub1 avg (IC50 [mol/l])
Sequence of human Bub1 (O43683 704-1085): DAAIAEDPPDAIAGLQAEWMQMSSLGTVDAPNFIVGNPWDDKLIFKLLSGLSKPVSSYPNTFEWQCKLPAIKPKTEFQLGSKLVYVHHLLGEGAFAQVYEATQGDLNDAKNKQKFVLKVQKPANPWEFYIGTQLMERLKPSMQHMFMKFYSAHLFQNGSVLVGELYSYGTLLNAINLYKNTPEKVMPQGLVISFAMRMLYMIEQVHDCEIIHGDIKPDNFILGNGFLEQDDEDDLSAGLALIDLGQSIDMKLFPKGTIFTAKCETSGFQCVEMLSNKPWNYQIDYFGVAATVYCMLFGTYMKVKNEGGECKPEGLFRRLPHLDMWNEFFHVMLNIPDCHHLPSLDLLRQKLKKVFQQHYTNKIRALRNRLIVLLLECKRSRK
Procedure, shortened: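 His6-tagged human Bub1 catalytic domain (aa 704-1085, insect-cell expressed, ~200 ng/ml) preincubated with compound 15 min, then reacted 60 min at 22 °C with 10 μM ATP and 1 μM biotinylated peptide (final) in pH 7.5 Tris buffer. Phosphopeptide detected by TR-FRET 665/620 ratio, normalised to no-inhibitor and no-enzyme controls.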

Compound | IC50 [1] [nM] | IC50 (human Bub1) [nM]
Cc1nsc(Nc2cncc(-c3ncco3)n2)c1C(=O)Nc1ccc(Cl)c(F)c1 [Example 63, N-(4-Chloro-3-fluorophenyl)-3-methyl-5-{[6-(1,3-oxazol-2-yl)pyrazin-2-yl]amino}-1,2-thiazole-4-carboxamide] | 180 | > 20000
Cc1nsc(Nc2cnc(Cl)cn2)c1C(=O)Nc1ccc(F)c(F)c1 [Example 74, 5-[(5-Chloropyrazin-2-yl)amino]-N-(3,4-difluorophenyl)-3-methyl-1,2-thiazole-4-carboxamide] | 29 | > 20000
Cc1nsc(Nc2cnc3cc(C(F)(F)F)ccc3n2)c1C(=O)Nc1ccc(Cl)c(F)c1 [Example 68, N-(4-Chloro-3-fluorophenyl)-3-methyl-5-{[6-(trifluoromethyl)quinoxalin-2-yl]amino}-1,2-thiazole-4-carboxamide] | 49 | > 20000
Cc1cncc(Nc2snc(C)c2C(=O)Nc2ccc(F)c(F)c2)n1 [Example 69] | 48 | > 20000
COC(=O)c1cncc(Nc2snc(C)c2C(=O)Nc2ccc(F)c(F)c2)n1 [Example 66, Methyl 6-({4-[(3,4-difluorophenyl)carbamoyl]-3-methyl-1,2-thiazol-5-yl}amino)-pyrazine-2-carboxylate] | 37 | > 20000
Cc1nsc(Nc2nc3c(C(F)(F)F)ccnc3s2)c1C(=O)Nc1ccc(F)c(F)c1 [Example 58, N-(3,4-Difluorophenyl)-3-methyl-5-{[7-(trifluoromethyl)[1,3]thiazolo[5,4-b]pyridin-2-yl]amino}-1,2-thiazole-4-carboxamide] | 280 | > 20000
Cc1nsc(Nc2ccc(C#N)cn2)c1C(=O)Nc1ccc(Cl)c(Cl)c1 [Example 62, 5-[(5-Cyanopyridin-2-yl)amino]-N-(3,4-dichlorophenyl)-3-methyl-1,2-thiazole-4-carboxamide] | 8.2 | > 20000
CCc1ccccc1NC(=O)c1c(C)nsc1Nc1cc(C#N)ccn1 [Example 4, 5-[(4-Cyanopyridin-2-yl)amino]-N-(2-ethylphenyl)-3-methyl-1,2-thiazole-4-carboxamide] | 730 | > 20000
COc1cncc(Nc2snc(C)c2C(=O)Nc2ccc(F)c(F)c2)n1 [Example 72, N-(3,4-Difluorophenyl)-5-[(6-methoxypyrazin-2-yl)amino]-3-methyl-1,2-thiazole-4-carboxamide] | 350 | > 20000
CCc1ccccc1NC(=O)c1c(C)nsc1Nc1ccncn1 [Example 2, N-(2-Ethylphenyl)-3-methyl-5-(pyrimidin-4-ylamino)-1,2-thiazole-4-carboxamide] | 4200 | > 20000
Cc1nsc(Nc2cncc(Cl)n2)c1C(=O)Nc1ccc(F)c(F)c1 [Example 71, 5-[(6-Chloropyrazin-2-yl)amino]-N-(3,4-difluorophenyl)-3-methyl-1,2-thiazole-4-carboxamide] | 94 | > 20000
CNC(=O)c1cncc(Nc2snc(C)c2C(=O)Nc2ccc(F)c(F)c2)n1 [Example 70, 6-({4-[(3,4-Difluorophenyl)carbamoyl]-3-methyl-1,2-thiazol-5-yl}amino)-N-methylpyrazine-2-carboxamide] | 99 | 1700
CCc1ccccc1NC(=O)c1c(C)nsc1Nc1nccc(-c2ccccc2)n1 [Example 5, N-(2-Ethylphenyl)-3-methyl-5-[(4-phenylpyrimidin-2-yl)amino]-1,2-thiazole-4-carboxamide] | 1200 | > 20000
Cc1nsc(Nc2cncc(-n3cccn3)n2)c1C(=O)Nc1ccc(Cl)c(F)c1 [Example 67, N-(4-Chloro-3-fluorophenyl)-3-methyl-5-{[6-(1H-pyrazol-1-yl)pyrazin-2-yl]amino}-1,2-thiazole-4-carboxamide] | 12 | > 20000
Cc1nsc(Nc2cnccn2)c1C(=O)Nc1ccc(F)c(F)c1 [Example 65, N-(3,4-Difluorophenyl)-3-methyl-5-(pyrazin-2-ylamino)-1,2-thiazole-4-carboxamide] | 210 | > 20000
CCNC(=O)c1cncc(Nc2snc(C)c2C(=O)Nc2ccc(F)c(F)c2)n1 [Example 73, 6-({4-[(3,4-Difluorophenyl)carbamoyl]-3-methyl-1,2-thiazol-5-yl}amino)-N-ethylpyrazine-2-carboxamide] | 230 | 6200
Cc1nsc(Nc2cncc(-n3cccn3)n2)c1C(=O)Nc1ccc(F)c(F)c1 [Example 64, N-(3,4-Difluorophenyl)-3-methyl-5-{[6-(1H-pyrazol-1-yl)pyrazin-2-yl]amino}-1,2-thiazole-4-carboxamide] | 97 | 

Further lines, results first:

IC50 [1] [nM] | IC50 (human Bub1) [nM] | Compound
9.7 | > 20000 | Cc1nsc(Nc2cnc(C(F)(F)F)cn2)c1C(=O)Nc1ccc(F)c(F)c1 [Example 81, N-(3,4-Difluorophenyl)-3-methyl-5-{[5-(trifluoromethyl)pyrazin-2-yl]amino}-1,2-thiazole-4-carboxamide]
1200 | > 20000 | CCOC(=O)c1cnc(Nc2snc(C)c2C(=O)Nc2ccccc2CC)s1 [Example 92, Ethyl 2-({4-[(2-ethylphenyl)-carbamoyl]-3-methyl-1,2-thiazol-5-yl}amino)-1,3-thiazole-5-carboxylate]
1900 | > 20000 | CNC(=O)c1ccc(Nc2snc(C)c2C(=O)Nc2ccc(F)c(F)c2)nn1 [Example 80, 6-({4-[(3,4-Difluorophenyl)carbamoyl]-3-methyl-1,2-thiazol-5-yl}amino)-N-methylpyridazine-3-carboxamide]
81 | > 20000 | COc1ccc(NC(=O)c2c(C)nsc2Nc2cnc3ccccc3n2)cn1 [Example 94, N-(6-Methoxypyridin-3-yl)-3-methyl-5-(quinoxalin-2-ylamino)-1,2-thiazole-4-carboxamide]
7 | > 20000 | Cc1nsc(Nc2ccc(C(F)(F)F)nn2)c1C(=O)Nc1ccc(F)c(F)c1 [Example 83, N-(3,4-Difluorophenyl)-3-methyl-5-{[6-(trifluoromethyl)pyridazin-3-yl]amino}-1,2-thiazole-4-carboxamide]
52 | > 20000 | CCc1cncc(Nc2snc(C)c2C(=O)Nc2ccc(F)c(F)c2)n1 [Example 76, N-(3,4-Difluorophenyl)-5-[(6-ethylpyrazin-2-yl)amino]-3-methyl-1,2-thiazole-4-carboxamide]
4200 | > 20000 | COc1ccc(NC(=O)c2c(C)nsc2Nc2nc3ccc(C)cc3s2)cn1 [Example 90, N-(6-Methoxypyridin-3-yl)-3-methyl-5-[(6-methyl-1,3-benzothiazol-2-yl)amino]-1,2-thiazole-4-carboxamide]
58 | > 20000 | COc1ccc(NC(=O)c2c(C)nsc2Nc2cncc(C(F)(F)F)n2)cn1 [Example 84, N-(6-methoxypyridin-3-yl)-3-methyl-5-{[6-(trifluoromethyl)pyrazin-2-yl]amino}-1,2-thiazole-4-carboxamide]
81 | > 20000 | CNC(=O)c1cnc(Nc2snc(C)c2C(=O)Nc2ccc(F)c(F)c2)cn1 [Example 75, 5-({4-[(3,4-Difluorophenyl)carbamoyl]-3-methyl-1,2-thiazol-5-yl}amino)-N-methylpyrazine-2-carboxamide]
4200 | > 20000 | CCc1ccccc1NC(=O)c1c(C)nsc1Nc1nc(C(=O)OC)co1 [Example 91, Methyl 2-({4-[(2-ethylphenyl)carbamoyl]-3-methyl-1,2-thiazol-5-yl}amino)-1,3-oxazole-4-carboxylate]
530 | > 20000 | CCc1ccccc1NC(=O)c1c(C)nsc1Nc1cnc2cc(Cl)ccc2n1 [Example 86, 5-[(6-Chloroquinoxalin-2-yl)amino]-N-(2-ethylphenyl)-3-methyl-1,2-thiazole-4-carboxamide]
260 | > 20000 | CCOC(=O)c1sc(Nc2snc(C)c2C(=O)Nc2ccc(Cl)c(F)c2)nc1C [Example 95, Ethyl 2-({4-[(4-chloro-3-fluoro-phenyl)carbamoyl]-3-methyl-1,2-thiazol-5-yl}amino)-4-methyl-1,3-thiazole-5-carboxylate]
1400 | > 20000 | COc1ccc(NC(=O)c2c(C)nsc2Nc2ncc(C(=O)N3CCOCC3)s2)cc1F [Example 93, N-(3-Fluoro-4-methoxyphenyl)-3-methyl-5-{[5-(morpholin-4-ylcarbonyl)-1,3-thiazol-2-yl]amino}-1,2-thiazole-4-carboxamide]
140 | > 20000 | CCc1cnc(Nc2snc(C)c2C(=O)Nc2ccc(F)c(F)c2)cn1 [Example 79, N-(3,4-Difluorophenyl)-5-[(5-ethylpyrazin-2-yl)amino]-3-methyl-1,2-thiazole-4-carboxamide]
390 | > 20000 | CCNc1cncc(Nc2snc(C)c2C(=O)Nc2ccc(F)c(F)c2)n1 [Example 78, N-(3,4-Difluorophenyl)-5-{[6-(ethylamino)pyrazin-2-yl]amino}-3-methyl-1,2-thiazole-4-carboxamide]
18 | > 20000 | Cc1nsc(Nc2cnc(Br)cn2)c1C(=O)Nc1ccc(F)c(F)c1 [Example 77, 5-[(5-Bromopyrazin-2-yl)amino]-N-(3,4-difluorophenyl)-3-methyl-1,2-thiazole-4-carboxamide]
820 | 17000 | COc1ccc(NC(=O)c2c(C)nsc2Nc2nc3ccc(F)cc3s2)cn1 [Example 88, 5-[(6-Fluoro-1,3-benzothiazol-2-yl)amino]-N-(6-methoxypyridin-3-yl)-3-methyl-1,2-thiazole-4-carboxamide]
